{
  "source": "patent US9757372B2",
  "about": "“Toll-like receptor 4 antagonists and use in autoimmune liver diseases” (TAIWANJ PHARMACEUTICALS CO., LTD., priority 2015, dated 2017)",
  "key": {"[1]": {"system": "Con A-induced hepatitis", "experiment": "Concanavalin A hepatitis in mouse (murine model of AIH)", "assay_type": "in vivo"}, "[2]": {"system": "liver NK cells, NKT cells and mononuclear cells", "experiment": "Murine model of primary biliary cirrhosis (2-OA-BSA and α-GalCer immunized C57BL/6 mice)", "assay_type": "in vivo, mouse", "settings": "50 mg/kg bid oral; for effect on elevated liver NK cells: week 4 through week 10 (FIG. 3); for effect on elevated liver NKT cells: week 4 through week 10 (FIG. 4); for effect on elevated liver mononuclear cells: week 4 through week 10 (not shown)", "excerpt": "C57BL/6 mice of 8-10 weeks old were immunized with 2-OA-BSA and α-GalCer at week 0, followed by booster injections at 2, 4, and 8. […] Each value represents individual animals. Some animals were lost due to lunging."}, "[3]": {"molecular_target": "T1, TLR4 (Homo sapiens, UniProt O00206+Q9Y6Y9)", "settings": "Hutchinson et al., Eur J Neurosci. 28:20-29, 2008; cited from earlier work"}, "[4]": {"molecular_target": "T1, TLR4", "experiment": "Inhibition of TLR4 activation: NF-κB-inducible SEAP reporter, antagonist assay with LPS", "assay_type": "cell-based", "design": "expressed in transfected cells; host or cells: HEK293", "experimental": "The secreted alkaline phosphatase reporter is under the control of a promoter inducible by the transcription factor NF-κB. TLR stimulation in the screening is tested by assessing NF-κB activation in the HEK293 cells expressing a given TLR. This reporter gene allows the monitoring of signaling through the TLR, based on the activation of NF-κB. In a 96-well plate (200μL total volume) containing the appropriate cells (25,000-50,000 cells/well), we add 20μL of your sample or the positive control ligands to the wells. For the antagonist assay, the samples are incubated with the cells for 30 minutes prior to adding the appropriate stimulating ligand. The media we add to the wells is designed for the detection of NF-κB induced SEAP expression. After a 16-20 hr incubation we read the OD at 650 nm on a Beckman Coulter AD 340C Absorbance Detector."}, "[5]": {"settings": "20 mg/kg, 9 hours post Con A challenge, P<0.05 vs vehicle"}, "[6]": {"settings": "50 mg/kg PO, result in words (FIG. 2)"}},
  "data": [
    {"smiles": "O=C1CC[C@@]2(O)[C@H]3Cc4ccc(O)c5c4[C@@]2(CCN3CC2CC2)[C@H]1O5", "note": "[Compound A, naltrexone]", "values": [
      {"measurement": "reduction of IL-5 in the liver", "setting": "[1]; [5]", "value": 21, "unit": "%"},
      {"measurement": "reduction of IL-6 in the liver", "setting": "[1]; [5]", "value": 32, "unit": "%"},
      {"measurement": "effect on elevated liver NK cells", "setting": "[2]", "value": "suppressed"},
      {"measurement": "effect on elevated liver NKT cells", "setting": "[2]", "value": "suppressed"},
      {"measurement": "effect on elevated liver mononuclear cells", "setting": "[2]", "value": "suppressed"},
      {"measurement": "reported TLR4 antagonist", "setting": "[3]", "value": "TLR4 antagonist"}
    ]},
    {"smiles": "C=C1CC[C@@]2(O)[C@H]3Cc4ccc(O)c5c4[C@@]2(CCN3CC2CC2)[C@H]1O5", "note": "[Compound B, nalmefene]", "values": [
      {"measurement": "inhibition of Con A-induced elevation of ALT", "setting": "[1]; [6]", "value": "significant (P<0.05) inhibition"},
      {"measurement": "inhibition of Con A-induced elevation of AST", "setting": "[1]; [6]", "value": "significant (P<0.05) inhibition"},
      {"measurement": "reduction of IL-5 in the serum", "setting": "[1]; 50 mg/kg, 6 hours post Con A challenge", "value": 64, "unit": "%"},
      {"measurement": "reduction of IL-5 in the liver", "setting": "[1]; 50 mg/kg, 24 hours post Con A challenge", "value": 16, "unit": "%"},
      {"measurement": "effect on elevated liver NK cells", "setting": "[2]", "value": "suppressed"},
      {"measurement": "effect on elevated liver NKT cells", "setting": "[2]", "value": "suppressed"},
      {"measurement": "effect on elevated liver mononuclear cells", "setting": "[2]", "value": "suppressed"},
      {"measurement": "% of Inhibition of NF-κB", "setting": "[4]; HEK293 cells expressing TLR4, LPS 50 pg/mL, compound 10 μM", "value": 21, "unit": "%"},
      {"measurement": "inhibition of LPS-induced TLR4 activation", "setting": "[4]; at various concentrations", "value": "weak inhibition"}
    ]},
    {"smiles": "COc1ccc2c(c1)[C@@]13CCCC[C@H]1[C@@H](C2)NCC3", "note": "[Compound C, 3-methoxymorphinan]", "values": [
      {"measurement": "effect on elevated liver NK cells", "setting": "[2]", "value": "suppressed"},
      {"measurement": "effect on elevated liver NKT cells", "setting": "[2]", "value": "suppressed"},
      {"measurement": "effect on elevated liver mononuclear cells", "setting": "[2]", "value": "suppressed"}
    ]},
    {"smiles": "Oc1ccc2c(c1)[C@@]13CCCC[C@H]1[C@@H](C2)NCC3", "note": "[Compound D, 3-hydroxymorphinan]", "values": [
      {"measurement": "effect on elevated liver NK cells", "setting": "[2]", "value": "suppressed"},
      {"measurement": "effect on elevated liver NKT cells", "setting": "[2]", "value": "suppressed"},
      {"measurement": "effect on elevated liver mononuclear cells", "setting": "[2]", "value": "suppressed"}
    ]}
  ]
}
